Active and inactive are the calls of the source. The rule behind the calls is not given here.
Experiments:
Assay type in all cases: functional, cell-based
RAW264.7 [1] = test: Antiinflammatory activity in LPS-stimulated mouse RAW264.7 cells assessed as inhibition of nitric oxide production at 200 ug/mL after 18 hrs by Griess reagent-based ELISA
RAW264.7 [2] = test: Antiinflammatory activity in IFN-gamma-stimulated mouse RAW264.7 cells assessed as inhibition of nitric oxide production at 200 ug/mL after 18 hrs by Griess reagent-based ELISA
RAW264.7 [3] = test: Inhibition of iNOS mRNA expression in LPS-stimulated mouse RAW264.7 cells at 0.1 to 20 ug/mL by RT-PCR analysis
RAW264.7 [4] = test: Inhibition of iNOS mRNA expression in IFN-gamma-stimulated mouse RAW264.7 cells at 0.1 to 20 ug/mL by RT-PCR analysis
RAW264.7 [5] = test: Antiinflammatory activity in IFN-gamma-stimulated mouse RAW264.7 cells assessed as inhibition of nitric oxide production after 18 hrs by Griess reagent-based ELISA
RAW264.7 [6] = test: Antiinflammatory activity in LPS-stimulated mouse RAW264.7 cells assessed as inhibition of nitric oxide production after 18 hrs by Griess reagent-based ELISA

SMILES: C=C(C)C(OC(=O)/C=C/c1ccc(O)cc1)C1C/C(=C/CO[C@@H]2O[C@H](CO)[C@@H](O)[C@H](O)[C@H]2O)C(=O)O1 (stereo partly specified)
- inhibition (RAW264.7 [1]): inactive
- inhibition (RAW264.7 [2]): inactive

SMILES: C=C(C)C(OC(=O)/C=C/c1ccc(OC(C)=O)cc1)C1C/C(=C/CO[C@@H]2O[C@H](COC(C)=O)[C@@H](OC(C)=O)[C@H](OC(C)=O)[C@H]2OC(C)=O)C(=O)O1 (stereo partly specified)
- inhibition (RAW264.7 [3]): Active
- inhibition (RAW264.7 [4]): Active
- inhibition (RAW264.7 [5]): Dose-dependent effect
- inhibition (RAW264.7 [6]): Dose-dependent effect

From ChEMBL document CHEMBL1155727, “Prunioside A: a new terpene glycoside from Spiraea prunifolia” (J Nat Prod, 2001)
